System: 945468-187-T-J3-PDC spheroids with HUVEC/MSC, viability
Test: Anticancer human tumor 945468-187-T-J3-PDC patient-derived rectal carcinoma cell line growth inhibition [PI3K]
Settings: for IC50: curve of first compound; for viability, T/C: stronger effect = lower value
In short: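 Multi-cell spheroids combine tumor cells with HUVEC and human MSCs, treated with targeted agents alone or with inavolisib, alpelisib, duvelisib or copanlisib. Concentrations fall in half-log steps from at or near clinical Cmax, or from 10 microM where Cmax is unknown; viability read-out.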

[1] = second compound 0.0316 µM, first compound 0.0316 µM
[2] = second compound 0.0316 µM, first compound 0.1 µM
[3] = second compound 0.0316 µM, first compound 0.316 µM
[4] = second compound 0.0316 µM, first compound 1 µM
[5] = second compound 0.0316 µM, first compound 3.16 µM
[6] = second compound 0.0316 µM, first compound 10 µM
[7] = second compound 0.1 µM, first compound 0.0316 µM
[8] = second compound 0.1 µM, first compound 0.1 µM
[9] = second compound 0.1 µM, first compound 0.316 µM
[10] = second compound 0.1 µM, first compound 1 µM
[11] = second compound 0.1 µM, first compound 3.16 µM
[12] = second compound 0.1 µM, first compound 10 µM
[13] = second compound 0.316 µM, first compound 0.0316 µM
[14] = second compound 0.316 µM, first compound 0.1 µM
[15] = second compound 0.316 µM, first compound 0.316 µM
[16] = second compound 0.316 µM, first compound 1 µM
[17] = second compound 0.316 µM, first compound 3.16 µM
[18] = second compound 0.316 µM, first compound 10 µM
[19] = second compound 1 µM, first compound 0.0316 µM
[20] = second compound 1 µM, first compound 0.1 µM
[21] = second compound 1 µM, first compound 0.316 µM
[22] = second compound 1 µM, first compound 1 µM
[23] = second compound 1 µM, first compound 3.16 µM
[24] = second compound 1 µM, first compound 10 µM
[25] = second compound 3.16 µM, first compound 0.0316 µM
[26] = second compound 3.16 µM, first compound 0.1 µM
[27] = second compound 3.16 µM, first compound 0.316 µM
[28] = second compound 3.16 µM, first compound 1 µM
[29] = second compound 3.16 µM, first compound 3.16 µM
[30] = second compound 3.16 µM, first compound 10 µM
[31] = second compound 10 µM, first compound 0.0316 µM
[32] = second compound 10 µM, first compound 0.1 µM
[33] = second compound 10 µM, first compound 0.316 µM
[34] = second compound 10 µM, first compound 1 µM
[35] = second compound 10 µM, first compound 3.16 µM
[36] = second compound 10 µM, first compound 10 µM
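Note: spheroids exposed to agents for 7 days before viability read.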
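Throughout, for viability, T/C: 100% = DMSO vehicle control viability.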

CC1(C)CCC(CN2CCN(c3ccc(C(=O)NS(=O)(=O)c4ccc(NCC5CCOCC5)c([N+](=O)[O-])c4)c(Oc4cnc5[nH]ccc5c4)c3)CC2)=C(c2ccc(Cl)cc2)C1 + Cc1nc(NC(=O)N2CCCC2C(N)=O)sc1-c1ccnc(C(C)(C)C(F)(F)F)c1
IC50 (second compound 0.0316 µM): 6.84 µM
IC50 (second compound 0.1 µM): 6.42 µM
IC50 (second compound 0.316 µM): 6.58 µM
IC50 (second compound 1 µM): 6.68 µM
IC50 (second compound 3.16 µM): 6.32 µM
IC50 (second compound 10 µM): 4.27 µM
viability, T/C [1]: 95.4%
viability, T/C [2]: 109%
viability, T/C [3]: 97.5%
viability, T/C [4]: 120%
viability, T/C [5]: 125%
viability, T/C [6]: 20.8%
viability, T/C [7]: 100%
viability, T/C [8]: 108%
viability, T/C [9]: 101%
viability, T/C [10]: 117%
viability, T/C [11]: 123%
viability, T/C [12]: 12.5%
viability, T/C [13]: 107%
viability, T/C [14]: 112%
viability, T/C [15]: 113%
viability, T/C [16]: 120%
viability, T/C [17]: 130%
viability, T/C [18]: 12.2%
viability, T/C [19]: 117%
viability, T/C [20]: 115%
viability, T/C [21]: 106%
viability, T/C [22]: 113%
viability, T/C [23]: 114%
viability, T/C [24]: 15.8%
viability, T/C [25]: 116%
viability, T/C [26]: 101%
viability, T/C [27]: 101%
viability, T/C [28]: 122%
viability, T/C [29]: 104%
viability, T/C [30]: 14.5%
viability, T/C [31]: 70.7%
viability, T/C [32]: 59%
viability, T/C [33]: 63.8%
viability, T/C [34]: 68.4%
viability, T/C [35]: 63.3%
viability, T/C [36]: 12.1%

C[C@@H](NC(=O)c1ncnc(N)c1Cl)c1ncc(C(=O)Nc2cc(C(F)(F)F)c(Cl)cn2)s1 + Cc1nc(NC(=O)N2CCCC2C(N)=O)sc1-c1ccnc(C(C)(C)C(F)(F)F)c1
IC50 (second compound 0.0316 µM): > 10 µM
IC50 (second compound 0.1 µM): > 10 µM
IC50 (second compound 0.316 µM): > 10 µM
IC50 (second compound 1 µM): > 10 µM
IC50 (second compound 3.16 µM): > 10 µM
IC50 (second compound 10 µM): > 10 µM
viability, T/C [1]: 107%
viability, T/C [2]: 107%
viability, T/C [3]: 91.6%
viability, T/C [4]: 111%
viability, T/C [5]: 106%
viability, T/C [6]: 105%
viability, T/C [7]: 101%
viability, T/C [8]: 97.2%
viability, T/C [9]: 94.8%
viability, T/C [10]: 110%
viability, T/C [11]: 111%
viability, T/C [12]: 107%
viability, T/C [13]: 95.8%
viability, T/C [14]: 98.6%
viability, T/C [15]: 95.4%
viability, T/C [16]: 120%
viability, T/C [17]: 112%
viability, T/C [18]: 100%
viability, T/C [19]: 108%
viability, T/C [20]: 115%
viability, T/C [21]: 102%
viability, T/C [22]: 114%
viability, T/C [23]: 97.6%
viability, T/C [24]: 107%
viability, T/C [25]: 108%
viability, T/C [26]: 98%
viability, T/C [27]: 101%
viability, T/C [28]: 96.4%
viability, T/C [29]: 99%
viability, T/C [30]: 103%
viability, T/C [31]: 67.1%
viability, T/C [32]: 51.1%
viability, T/C [33]: 44.1%
viability, T/C [34]: 56%
viability, T/C [35]: 61.9%
viability, T/C [36]: 51.3%

— PubChem BioAssay AID1963968 (Molecular Pharmacology Branch, DTP, NCI, 2024)
